Laboratory results taken from ChEMBL document CHEMBL5614415, “Recent advances and challenges of revolutionizing drug-resistant tuberculosis treatment” (Eur J Med Chem, 2024).

System: Mycobacterium tuberculosis variant bovis
Assay: Antimycobacterial activity against Mycobacterium bovis BCG ATCC 35734 assessed as bacterial growth inhibition incubated for 15 days by resazurin based reduction assay
Format: functional
Settings: BCG ATCC 35734, 360 h, time 15 day

Q: Which MIC50 does the source give for `COc1cc([C@](O)(CCN(C)C)[C@@H](c2cc3cc(Br)ccc3nc2OC)c2cccc(OC)c2F)cc(OC)n1` [TBAJ-587] here?
A: < 6 ng/mL
